In patent US6489340B1, “Macrolide compounds for inducing chondrogenic differentiation” (Fujisawa Pharmaceutical., Ltd., priority 1999, dated 2002):

Test system: ATDC5 cells
Test: Induction of chondrogenic differentiation of ATDC5 cells (Alcian blue staining, proteoglycan amount)
Format: cell-based
Details: ATDC5 cells incubated 24 days; Alcian blue dye measured at 620 nm; FK506 1-1000 ng/ml
Experimental: The inducing activity by FK506 Substance on chondrogenic differentiation was evaluated in accordance with the below-mentioned method. (1) The ATDC5 cell line provided by RIKEN Cell Bank (Tsukuba, Japan) was grown in a 1:1 mixture of Dulbecco's modified Eagle's medium and Ham's F12 medium (Nikken Biomedical Laboratory, Kyoto, Japan) supplemented with 10 % heat-inactivated fetal bovine serum (Intergen, Purchase, N.Y.). […] (2) The above ATDC5 cells were plated in 12-multiwell plastic plate at a density of 1×10^5 cells/well in the medium. After 4 hr, the medium was replaced with fresh medium containing FK506 or Cyclosporin A (CsA), and the culture was continued for a 24 days with medium change every 2 or 3 days. Cells were fixed with methanol and stained 0.1% Alcian blue (Sigma Chemical Co., St. Louis, Mo.) dissolved in 0.1 M hydrochloric acid for 16 hr at room temperature. Cells were then rinsed three times with distilled water, and the amount of cell-associated dye was measured at 620 nm after extraction with 6 M guanidine-HCl (300 μl/well). ATDC5 cells were incubated with FK506 or CsA for 24 days and the amount of proteoglycan was assayed.

Compound	inducing activity on chondrogenic differentiation (differentiation into chondrocyte; amount of proteoglycan)
C=CC[C@@H]1/C=C(\C)C[C@H](C)C[C@H](OC)[C@H]2O[C@@](O)(C(=O)C(=O)N3CCCC[C@H]3C(=O)O[C@H](/C(C)=C/[C@@H]3CC[C@@H](O)[C@H](OC)C3)[C@H](C)[C@@H](O)CC1=O)[C@H](C)C[C@@H]2OC [FK506, 17-allyl-1,14-dihydroxy-12-[2-(4-hydroxy-3-methoxycyclohexyl) -1-methylvinyl]-23,25-dimethoxy-13,19,21,27-tetramethyl-11, 28-dioxa-4-azatricyclo [22.3.1.0^4,9]octacos-18-ene-2,3,10,16-tetraone]	induced differentiation into chondrocyte in a concentration-dependent manner
Cyclosporin A [CsA]	did not induce the differentiation
